Measurements as given in patent US9023848B2 (Bionomics Limited, priority 2012, dated 2015).
Values after ≈ are worked out from the molar mass of the structure shown.

How the values were obtained:
[1] = tested on: mice; assay: Light Dark Box test (anxiolytic effect); assay type: in vivo; settings: per os 1 hour before the test
Description: The light dark paradigm is based on a conflict between the innate aversion of rodents to brightly illuminated areas and on the spontaneous exploratory behaviour of the mice. If given a choice between a large brightly compartment versus a small dark compartment they spontaneously prefer the dark part.
The apparatus consists of two PVC (polyvinylchloride) boxes (19×19×15 cm) covered with Plexiglas. One of these boxes is darkened. The other box is illuminated by 100 W desk lamp placed 15 cm above and providing an illumination of about 4400 Lux. An opaque plastic tunnel (5×7×10 cm) separates the dark box from the illuminated one.
Animals were placed individually in the lit box, with head directed towards the tunnel. The time spent in the lit box and the number of transitions between the two boxes was recorded over a 5 min period after the first entry of the animal in the dark box. The total walked distance in the lit box was also recorded. Animals scored without entry into the […] were excluded from the analysis.
(§1) Test compound was prepared in aqueous vehicle containing 0.5% w/v hydroxypropylmethyl cellulose, 0.5% v/v benzyl alcohol and 0.4% v/v Tween 80. It was administrated per os 1 hour before the implementation of the test.

[2] = tested on: mice; assay: Modified Open Field (Dark), sedative or stimulating effect; assay type: in vivo; settings: tested at 5-100 mg/kg, per os 1 hour before the test
Description: The open field (dark) is used to measure the spontaneous motor activity of mice in a quiet, dark environment. This system is useful for discriminating the sedating or stimulating properties of test compounds on spontaneous locomotion and can thus provide a preliminary indication of potentially adverse effects such as sedation.
The apparatus is an open plexiglass cage (52×52 cm) with 40 cm walls. The animal's movements are tracked by a computerised video tracking system, consisting of an overhead camera, diode sensors placed underneath the floor of the cage, computer and video analyser software (ViewPoint, France). The video camera is placed at 2.50 m above the cage and connected to the computer via a video capture card (Pinnacle Systems, France). The video tracking system is set in a way that the floor of the OF is divided into nine equal squares. The total number of crossed squares and the total walked distance are recorded.
Each animal is singly placed in a corner of the apparatus and its locomotor activity is automatically recorded over a period of 20 minutes.
The apparatus is cleaned between each animal with alcohol (70%).
as §1

[3] = tested on: rat; assay: Elevated Plus Maze; assay type: in vivo; settings: per os 1 hour before the test
Description: The Elevated Plus Maze (EPM) situation rests on the conflict between the innate tendencies of rodents to explore novel environments and avoid open and brightly lit areas. In this task the mouse is placed in the centre of the maze. From here it can walk down any of four runways. Two of the arms are well lit and open, and the other two are enclosed and dimly lit. Mice prefer the closed arms but will venture out into the open arms. The amount of time spent in the open arms and the number of times the mice enter the open arms are recorded. The total walked distance in the open arms is also recorded. “Anxious” mice will spend little time in the open arms and make very few entries into the open arms.
The apparatus is made of polyvinylchloride materials and consists of four equal exploratory arms (45×10 cm) which are all interconnected by a small platform (10×10 cm). Two arms are open and two others are closed with walls (30 cm high). The apparatus is placed 66 cm above the floor. A videotracking system is used to record the test (ViewPoint, France). […]
A trial consists of placing an animal on the central platform facing a closed arm. The number of entries and the duration spent in open arms are automatically recorded by a videotrack system during an 5 minutes period. […]

[4] = tested on: mice; assay: Marble Burying; assay type: in vivo; settings: per os 1 hour before the test
Description: The Marble Burying test is used as a model for both anxiety and obsessive compulsive disorders. Mice have a natural tendency to bury marbles under the bedding when placed in a cage with rows of evenly spaced marbles on the floor. Suppression of this spontaneous burying has been used as a measure of anxiolytic drug action. Mice pre-treated with benzodiazepines and different classes of antidepressants bury less marbles when compared to the control mice
The apparatus consists of transparent polycarbonate cages (30 cm×18 cm×19 cm) containing a 5 cm layer of fine sawdust bedding and 20 glass marbles (diameter: 1.5 cm) spaced evenly along the walls of the cage. Each animal is placed individually in the cage where it remains for a 20 min test session. On termination of the test session the animals are removed from the cage and the number of marbles at least two-thirds buried in the sawdust is recorded.
as §1

[5] = tested on: mice; assay: Forced Swim Test (antidepressant properties); assay type: in vivo; settings: per os 1 hour before the test
Description: The forced swim test is the most widely used paradigm for the evaluation of potential antidepressant effect of drugs. Animals placed in a container filled with water show periods of increased swimming activity and periods of relative immobility. Immobile posture reflects a state of tiredness, fatigue, reduced stamina or a lowered mood (hopelessness) similar to the core symptoms observed in depressed patients and in individuals under intense stress. […] The test has some predictive value for anti-depressant drugs. The apparatus consists of a glass cylinder (height 35 cm; diameter 24 cm) filled with water (depth: 25 cm, temperature: 25±1° C.).
as §1

[6] = tested on: cortical neurons; assay: Neurite outgrowth assay; assay type: cell-based; settings: rat cortical neurons, 3 days exposure, tested at 1 nM, 10 nM and 100 nM
Method: Female rats of 17 days gestation were killed by cervical dislocation and the foetuses were removed from the uterus. Their brains were placed in ice-cold medium of Leibovitz (L15, Gibco, Fisher bioblock, France). Cortex were dissected and meninges were carefully removed. The cortical neurons were dissociated by trypsinization for 30 min at 37° C. (trypsin-EDTA Gibco) in presence of 0.1 mg/ml DNAse I (Roche, France). The reaction was stopped by addition of Dulbecco's Modified Eagle Medium (DMEM; Gibco) with 10% of fetal bovine serum (FBS; Gibco). The suspension was triturated with a 10-ml pipette and using a 21G needle and syringe, and centrifuged at 350×g for 10 min at room temperature. The pellet of dissociated cells was resuspended in medium consisting of Neurobasal (Gibco) supplemented with 2% B27 supplement (Gibco), 0.5 mM L-Glutamine (Gibco), an antibiotic-antimicotic mixture. Viable cells were counted in a Neubauer cytometer using the trypan blue exclusion test (Sigma). Cells were seeded on the basis of 30000 cells per Petri dish (ø35 mm, Nunc) precoated with poly-L-lysine. […]
A global analysis of the data was performed using a one way analysis of variance (ANOVA), followed by Fisher's Protected Least Significant Difference when applicable. […] All results were expressed as mean±sem. […]

[7] = Kinetic solubility; assay type: physicochemical; settings: kinetic from dmso stock
[8] = logD7.4; assay type: physicochemical; settings: pH 7.4

Row | SMILES | Light Dark Box MED (Minimum Effective Dose) [1] | Open Field (Dark) sedation [2] | Elevated Plus Maze MED (Minimum Effective Dose) [3] | Marble Burying MED (Minimum Effective Dose) [4] | Forced Swim Test MED (Minimum Effective Dose) [5] | Neurite outgrowth: significant effect at concentrations [6] | solubility kinetic ([7]; pH 2, simulated gastric fluid) | solubility kinetic ([7]; pH 6.5, aqueous buffer) | logD [8]
1 | Cc1nc2ccc(NC3Cc4ccccc4C3)cc2c(-c2ccccc2)c1C(=O)O [Example 1, 6-(2,3-dihydro-1H-inden-2-ylamino)-2-methyl-4-phenylquinoline-3-carboxylic acid] | MED 0.1 mg/kg | No Sedation | MED 0.1 mg/kg | MED 0.1 mg/kg | MED 10 mg/kg | ≦100 nM | 25 to 50 µg/mL (≈ 63.4 to 127 µM) | 50 to 100 µg/mL (≈ 127 to 254 µM) | 2
2 | Cc1nc2ccc(NC3Cc4ccccc4C3)cc2c(-c2ccccc2)c1C(=O)N1CCOCC1 [Example 2] | MED 10 mg/kg | – | – | – | – | – | – | – | –
